Laboratory results taken from patent publication US6664419B1, “Method and device for purifying substances by means of crystallization” (Stockhausen GmbH & Co. KG, priority 1999, dated 2003).
Where two headings read alike, the source gives them in different places.

Experiment: Solubility limit of impurity in molten acrylic acid
Format: physicochemical
Text: In addition to other impurities, acrylic acid pre-purified by distillation may contain maleic acid, its anhydride, and phenothiazine which precipitate from the molten material at concentrations of more than 4% (maleic acid) and 1.5% (phenothiazine), respectively. The respective amounts of solid precipitating during a crystallization process as a result of surpassing the solubility limit can be inferred from the following Examples (Table 1 and 2).
The solubility of maleic acid in acrylic acid is about 4%. The residue (13.2 kg) contains 20.4% or 2.7 kg of maleic acid, 2.4 kg of which precipitates as a solid as a result of surpassing the solubility limit.

Compound | solubility in acrylic acid (in acrylic acid melt / mother liquor, precipitates above this concentration) | solubility in acrylic acid
c1ccc2c(c1)Nc1ccccc1S2 [PTZ, phenothiazine] | about 1.5% | –
O=C(O)/C=C\C(=O)O [maleic acid] | – | about 4%
